Marks after values point to notes of the source that are not given here.

One data set relates to erythrocytes. The experiment in a line: Hemolytic activity. Type of data set: cell-based. The settings on record: 0.1 mg/mL. An excerpt:
(§1) Hemolytic activity and thrombogenicity are the primary parameters for evaluating the safety of medical formulations. The phenotypic sea urchin embryo assay developed by colleagues is a visual way to study the toxicity of formulations in vivo. The sea urchin and human genomes contain more than 7000 common genes, including orthologs associated with a number of human diseases. Therefore, sea urchins can be considered as a reliable and versatile model organism for studying the safety of new and existing cytotoxic formulations in vivo. Table 5 presents data on the % of erythrocyte hemolysis, the degree of whole blood thrombosis of apiol-PPh3 and analogues, and data of phenotypic sea urchin embryo assay. Thus, the non-toxicity of PPh3 derivatives of allylbenzenes for normal non-cancer cells, as well as the selectivity of action against cancer cells, is shown. The selectivity of cytotoxic action against cancer cells in comparison with normal cells can be explained by the fact that the PPh3- cation provides selective accumulation and reduction in the mitochondrial membrane potential of the transformed cancer cells. Cyclodextrin (M-β-CD) and heparin are non-toxic (and approved by the FDA for intravenous application).
(§2) The hemolytic activity and thrombogenicity of apiol-PPh3 and analogues were studied using an earlier published technique.

A further data set relates to whole blood. The experiment in a line: Thrombogenicity (whole blood thrombosis). The settings on record: 0.1 mg/mL.
Text: as §1, §2

Data set [1] in a line: Solubility by UV spectroscopy (PBS, with and without M-β-CD). Type of data set: physicochemical. The settings on record: for solubility: aqueous buffer, thermodynamic from solid. On the procedure: On the contrary, their complexes with M-β-CD are soluble, and a clear peak in the UV spectrum is pronounced (225 nm). Based on UV spectra data in the presence of M-β-CD, the increase in solubility of apiol-PPh3 and analogues by a second order of magnitude is observed (Table 2).
The solubility of apiol and apiol-PPh3 (or analogues) in aqueous solution was determined by UV spectroscopy. UV spectra were recorded on the UltraSpec 2100 pro device (AmerSham Biosciences, Cambridge, UK) three times. The substances were dissolved in acetonitrile followed by recording the UV spectra at various cytostatics’ concentrations, and then we plotted calibration dependencies. Next, saturated solutions of substances in water were prepared, and the spectra of the aqueous solutions were recorded. Considering the extinction coefficients in water and acetonitrile to be approximately equal, the solubility was determined.

A short description of data set [2]: Dissociation constants of complexes with heparin by FTIR spectroscopy (Hill fit). The settings on record: calculated per one unit of heparin C12H19NO20S3, PBS. Type of data set: physicochemical. An excerpt: FTIR spectroscopy provides valuable data on the interaction of molecules, including those applicable to characterize the non-covalent complexes of apiol-PPh3 (and analogues) with cyclodextrins and heparin. In the FTIR spectra of apiol-PPh3 and analogues (Figure 3a), one characteristic is the bands of valence oscillations of the bonds C=C of the aromatic system (1450–1650 cm^−1) overlapping with the bands of deformation oscillations C-H (1400–1500 cm^−1). The intensity of these peaks increases with the formation of non-covalent complexes of apiol-PPh3 and its analogues with cyclodextrins and heparin due to the transition of the solid phase into solution. Linear fitting of the intensity of peaks in the FTIR spectra on the cyclodextrin or heparin concentration (Section 2.3) in Hill coordinates allows determining the dissociation constants of the complexes (Table 2). The interactions of triphenylphosphine derivatives of allylbenzenes with γ-CD is rather weak (Kd 10 mM values). In the case of M-β-CD, the dissociation constants reach millimolar values, which is sufficient to obtain soluble forms of adjuvants (Table 2). Thus, the β-cyclodextrin derivatives are more suitable in terms of size for inclusion of the adjuvants studied. […] Comparing the values of the dissociation constants of alkylbenzenes and PPh3-derivatives complexes with cyclodextrins, we observed that these Kd values are close, which means that it is the allylbenzene-fragment (of apiol-PPh3) that plunges into the cyclodextrin cavity, and the triphenylphosphine radical looks outward (Figure 3b), which would provide the implementation of mitochondrial targeting of the developed formulations.
Non-covalent complexes of apiol, apiol-PPh3 and analogues with cyclodextrins (with different molar ratios) and heparin (15 kDa, 1:1 w/w) were obtained by adding solutions of cyclodextrins (100 mg/mL) or heparin (20 mg/mL) in PBS to apiol or apiol-PPh3 (or analogues) samples (2–3 mg). The excess of CDs or heparin was varied from 0.04 to 10 mol/mol. Then, mixtures were incubated for 1 h at 40 °C. Cyclodextrin or heparin are necessary for the solubilization of extremely poorly soluble compounds.
The ATR-FTIR spectra of samples (Section 3.3) were acquired using a Bruker Tensor 27 spectrometer equipped with a liquid N2 cooled MCT (mercury cadmium telluride) detector. Samples were placed in a thermostatic cell BioATR-II with ZnSe ATR element (Bruker, Germany). FTIR spectra were recorded from 850 to 4000 cm^−1 with 1 cm^−1 spectral resolution; 50 scans were accumulated and averaged. Spectral data were processed using the Bruker software system Opus 8.2.28 (Bruker, Germany). The spectrum of cyclodextrin or heparin in the corresponding concentration was subtracted from the spectra of the complexes. […]

For the next data set, the system named is sea urchin embryos. As to the kind of experiment: Phenotypic sea urchin embryo assay. Type of data set: in vivo. As to conditions: X in M-β-CD.
Text: as §1
Adult sea urchins, Paracentrotus lividus L. (Echinidae), were collected from the Mediterranean Sea on the Cyprus coast and kept in an aerated seawater tank and were used to study the cleavage alteration of Apiol-PPh3 and analogues. Experiments with sea urchin embryos comply with the requirements of biological ethics.

What is called solubility is the concentration that dissolves in the medium under given conditions. Lower therefore signals little dissolved substance. For `COc1cc(CCC[P+](c2ccccc2)(c2ccccc2)c2ccccc2)c(OC)c(OC)c1OC` [Allyltetramethoxybenzene-PPh3], the “Hemolysis Index” value with erythrocytes was found to be 0.7 ± 0.1%. Moreover, the “Thrombosis Index” value with whole blood came out at 0.7 ± 0.2%. Moreover, in data set [1], the “Solubility in the Presence of 0.05 M M-β-CD” value (“Solubility in the Presence” below) was 17000 ± 5000 µM and the solubility turned out to be 70 ± 10 µM. Also, the “−lg Kd (X − Heparin)” value in data set [2] is 3.2 ± 0.1. Moreover, the “Concentration Causing Changes in Sea Urchin Embryos” value (from here on “Concentration Causing Changes”) with sea urchin embryos is recorded as >4 *** μM.
As for `COc1cc(CCC[P+](c2ccccc2)(c2ccccc2)c2ccccc2)c(OC)c2c1OCO2` [Apiol-PPh3], the “Hemolysis Index” value in the data set with erythrocytes is 0.8 ± 0.2%. Further, the “Thrombosis Index” value in the data set on whole blood is reported as 1.1 ± 0.2%. Besides, in data set [1], the “Solubility in the Presence” value came to 15000 ± 2000 µM and the solubility amounted to 80 ± 10 µM. Besides, in data set [2], the “−lg Kd (X − Heparin)” value is recorded as 2.7 ± 0.2. Besides, the “Concentration Causing Changes” value in the data set on sea urchin embryos was >4 *** μM.
Take `COc1c(CCC[P+](c2ccccc2)(c2ccccc2)c2ccccc2)cc2c(c1OC)OCO2` [Dillapiol-PPh3]: in the data set with erythrocytes, the “Hemolysis Index” value is given as 0.9 ± 0.2%. Further, the “Thrombosis Index” value with whole blood came out at 1.0 ± 0.1%. Moreover, in data set [1], the “Solubility in the Presence” value came to 8000 ± 1000 µM and the solubility worked out at 90 ± 10 µM. Also, the “−lg Kd (X − Heparin)” value in data set [2] was 3.0 ± 0.3. The “Concentration Causing Changes” value in the data set on sea urchin embryos was >4 *** μM.
In the case of `COc1cc(CCC[P+](c2ccccc2)(c2ccccc2)c2ccccc2)cc2c1OCO2` [Myristicin-PPh3], the “Hemolysis Index” value in the data set with erythrocytes was 0.5 ± 0.1%. In addition, the “Thrombosis Index” value in the data set with whole blood is 1.5 ± 0.2%. In addition, in data set [1], the “Solubility in the Presence” value came to 12000 ± 3000 µM and the solubility amounted to 40 ± 5 µM. Further, in data set [2], the “−lg Kd (X − Heparin)” value is recorded as 2.6 ± 0.2. Moreover, in the data set on sea urchin embryos, the “Concentration Causing Changes” value is >4 *** μM.

Values taken from publication PMC10747112, “Triphenylphosphine Derivatives of Allylbenzenes Express Antitumor and Adjuvant Activity When Solubilized with Cyclodextrin-Based Formulations” (Pharmaceuticals, 2023).
